From patent US20080312435A1, “Imine Compound” (TAISHO PHARMACEUTICAL CO., LTD., priority 2004, published 2008)

Legend:
human CB2 receptor = molecular target: T1, human CB2 receptor (Homo sapiens, UniProt P34972); assay: Human CB2 receptor binding inhibition test ([3H]CP-55,940, CHO membrane fractions); conditions: [3H]CP-55,940, membrane fractions of CHO cells stably expressing human CB2 receptor, 25° C., 2 hours; read-out: CB2 IC50 (Inhibition of binding to human CB2 receptor)
T1 construct: expressed in transfected cells
Description: Human CB2 Receptor Binding Inhibition Test
First, cDNA sequence (Munro et al., Nature, 1993, 365, 61-65) encoding a human CB2 receptor was inserted in the forward direction in an animal-cell expression vector, pTARGET Vector (manufactured by Promega) at a region downstream of a CMV promoter. Host cells CHO-DHFR(−) were transfected with the obtained expression vector with the aid of Lipofectamine (manufactured by Invitrogen) to obtain cells capable of stably expressing the CB2 receptor.
After the filtrate was washed with an assay buffer containing 0.1% bovine serum albumin, the radioactivity on the glass filter was measured by a liquid scintillation counter. Nonspecific binding was measured in the presence of 2.0 μM CP-55,940 (manufactured by Tocris). 50% inhibitory concentration (IC50 value) of the test compound for the specific binding was obtained.

T1 sequence (P34972 whole entry): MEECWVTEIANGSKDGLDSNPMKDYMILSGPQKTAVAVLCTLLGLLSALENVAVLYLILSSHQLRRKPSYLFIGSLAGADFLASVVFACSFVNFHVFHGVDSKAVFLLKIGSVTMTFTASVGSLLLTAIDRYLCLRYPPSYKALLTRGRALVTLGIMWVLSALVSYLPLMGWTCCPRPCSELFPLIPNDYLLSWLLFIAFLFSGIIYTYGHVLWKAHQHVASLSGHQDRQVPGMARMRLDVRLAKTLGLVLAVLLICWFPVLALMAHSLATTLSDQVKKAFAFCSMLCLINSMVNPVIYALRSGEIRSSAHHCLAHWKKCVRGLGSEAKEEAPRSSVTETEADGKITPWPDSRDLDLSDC

Compound	melting point [°C]	IC50 (human CB2 receptor) [nM]
COCCn1c(C)c(C(C)(C)C)s/c1=N\C(=O)c1cccc(OC(F)(F)C(F)F)c1 [compound 350]	114 to 116	5.2
CCn1c(C)c(C)s/c1=N\C(=O)c1cccc(C(F)(F)F)c1F [compound 70]	198 to 200	14.9
Cc1c(C(C)(C)C)s/c(=N\C(=O)c2ccccc2F)n1CC1CC1 [compound 185]	182 to 183	11
Cc1c(C(C)(C)C)s/c(=N\C(=O)c2cc(Br)ccc2F)n1CC1CC1 [compound 230]	113 to 114	1.5
O=C(/N=c1\ccc(Cl)cn1CC1CC1)c1cccc(C(F)(F)F)c1F [compound 34]	117 to 119	6.6
Cc1c(C(C)(C)C)s/c(=N\C(=O)c2cc(C(F)(F)F)ccc2C(F)(F)F)n1CC1CC1 [compound 220]	159 to 161	3.9
Cc1s/c(=N\C(=O)c2cc(F)ccc2Cl)n(CC2CC2)c1C [compound 80]	139 to 140	17.9
Cc1c(C(C)(C)C)s/c(=N\C(=O)C2C[C@H]2c2ccccc2)n1CC1CC1 (mixture of isomers) [compound 337]	110 to 112	2.8
Cc1s/c(=N\C(=O)c2cc(F)ccc2C(F)(F)F)n(CC2CC2)c1C [compound 93]	131 to 133	17.6
Cc1c(C(C)(C)C)s/c(=N\C(=O)c2ccc3nonc3c2)n1CC1CC1 [compound 320]	139 to 141	6.2
CCn1c(C)c(C(C)(C)C)s/c1=N\C(=O)c1cc(Br)ccc1F [compound 154]	105 to 106	5.9
CCOc1ncccc1C(=O)/N=c1\sc(C(C)(C)C)c(C)n1CC1CC1 [compound 310]	102 to 104	17.3
Cc1ccc(C)c(C(=O)/N=c2\sc(C(C)(C)C)c(C)n2CC2CC2)c1 [compound 217]	106 to 107	2.6
Cc1c(C(C)(C)C)s/c(=N\C(=O)c2ccc(Cl)cc2F)n1CC1CC1 [compound 226]	108 to 110	7.7
Cc1c(C(C)(C)C)s/c(=N\C(=O)c2ccc([N+](=O)[O-])o2)n1CC1CC1 [compound 319]	129 to 130	18.6
Cc1c(C(C)(C)C)s/c(=N\C(=O)c2cc(F)c(F)cc2Cl)n1CC1CC1 [compound 284]	112 to 114	1.2
Cc1c(C(C)(C)C)s/c(=N\C(=O)c2c(F)ccc(F)c2F)n1C [compound 134]	143 to 145	6.8
Cc1c(Br)cccc1C(=O)/N=c1\sc(C(C)(C)C)c(C)n1C [compound 140]	143 to 144	6.1
Cc1c(C(C)(C)C)s/c(=N\C(=O)c2cc(F)ccc2Br)n1C [compound 131]	161 to 162	5.6
COc1ccc(C(F)(F)F)cc1C(=O)/N=c1\sc(C(C)(C)C)nn1CC1CC1 [compound 509]	82 to 83	5.9

Compound	melting point [°C]	IC50 (human CB2 receptor) [nM]
O=C(/N=c1\ccc(F)cn1CC1CC1)c1cccc(C(F)(F)F)c1F [compound 37]	89 to 91	11.3
Cc1c(C(C)(C)C)s/c(=N\C(=O)c2cc(F)c(F)cc2Cl)n1C [compound 135]	145 to 146	11.9
Cc1c(C(C)(C)C)s/c(=N\C(=O)c2cccc(I)c2)n1CC1CC1 [compound 192]	114 to 115	13.2
Cc1c(C(C)(C)C)s/c(=N\C(=O)c2ccc(Br)cc2F)n1CC1CC1 [compound 227]	121 to 131	8.2
Cc1ccc/c(=N\C(=O)c2cccc(C(F)(F)F)c2F)n1CC1CC1 [compound 25]	96 to 98	17.4
Cc1c(C(C)(C)C)s/c(=N\C(=O)c2cc(F)ccc2C(F)(F)F)n1CC1CC1 [compound 254]	110 to 112	1.4
Cc1cs/c(=N\C(=O)c2cccc(C(F)(F)F)c2F)n1CC1CC1 [compound 63]	109 to 111	4.9
Cc1c(C(C)(C)C)s/c(=N\C(=O)c2ccc(F)c(Cl)c2F)n1CC1CC1 [compound 285]	76 to 77	14.2
CCOCCn1c(C)c(C(C)(C)C)s/c1=N\C(=O)c1cccc(C(F)(F)F)c1 [Compound No. 352, 5-t-butyl-3-(2-ethoxyethyl)-4-methyl-2-(3-trifluoromethylbenzoyl)imino-2,3-dihydrothiazole]	91 to 92	2.3
O=C(/N=c1\ccccn1CC1CCC1)c1cccc(C(F)(F)F)c1F [compound 12]	93 to 94	13.3
Cc1cccnc1C(=O)/N=c1\sc(C(C)(C)C)c(C)n1CC1CC1 [compound 293]	88 to 89	7
Cc1c(C(C)(C)C)s/c(=N\C(=O)c2cc3sccc3nc2C(F)(F)F)n1CC1CC1 [compound 328]	147 to 149	11.8
Cc1c(C(C)(C)C)s/c(=N\C(=O)c2cccc([N+](=O)[O-])c2)n1CC1CC1 [compound 209]	87 to 89	1.4
Cc1ccc(F)c(C(=O)/N=c2\sc(C(C)(C)C)c(C)n2C)c1F [compound 144]	140 to 142	4.3
CSc1ncccc1C(=O)/N=c1\sc(C(C)(C)C)c(C)n1CC1CC1 [compound 312]	138 to 139	14
CCn1c(C)c(C(C)(C)C)s/c1=N\C(=O)c1cc(Cl)ccc1Cl [compound 158]	127 to 128	7.1
Cc1s/c(=N\C(=O)c2cc(C(F)(F)F)ccc2F)n(CC2CC2)c1C [compound 92]	122 to 123	3.9
Cc1c(C(C)(C)C)s/c(=N\C(=O)c2nccnc2Cl)n1CC1CC1 [compound 305]	115 to 116	3.7
COCCn1c(C)c(C(C)(C)C)s/c1=N\C(=O)c1cccc(Br)c1 [compound 345]	89 to 91	12.7
Cc1cc/c(=N\C(=O)c2cccc(C(F)(F)F)c2F)n(CC2CC2)c1 [compound 24]	118 to 120	7.5

Compound	melting point [°C]	IC50 (human CB2 receptor) [nM]
Cc1cc(Cl)ccc1C(=O)/N=c1\sc(C)c(C)n1CC1CC1 [compound 90]	124 to 125	6.5
CCn1c(C)c(C(C)(C)C)s/c1=N\C(=O)c1cc(C(F)(F)F)ccc1OC(F)F [compound 174]	95 to 97	11.7
Cc1c(C(C)(C)C)s/c(=N\C(=O)C(C)(C)C)n1CC1CC1 [compound 330]	102 to 104	13.8
Cc1c(C(C)(C)C)s/c(=N\C(=O)c2cc(F)ccc2F)n1CC1CC1 [compound 221]	170 to 172	15.6
Cc1c(C(C)(C)C)s/c(=N\C(=O)C(F)(F)C(F)(F)C(F)(F)F)n1C [compound 149]	180 to 182	12.2
CC(C)(C)c1nn(CC2CC2)/c(=N/C(=O)c2cccc(C(F)(F)F)c2F)o1 [compound 514]	108 to 110	2.6
COc1ccc(OC)c(C(=O)/N=c2\sc(C)c(C)n2CC2CC2)c1 [compound 88]	124 to 126	17.8
CCn1c(C)c(C(C)(C)C)s/c1=N\C(=O)c1cc(F)ccc1C [compound 161]	108 to 109	9.7
CCn1c(C)c(C(C)(C)C)s/c1=N\C(=O)c1cc(F)c(F)cc1Cl [compound 159]	107 to 108	8.4
CCn1c(C)c(C(C)(C)C)s/c1=N\C(=O)c1ccc(F)cc1Br [compound 156]	99 to 100	11.4
Cc1c(Cl)s/c(=N\C(=O)c2cccc(C(F)(F)F)c2F)n1CC1CC1 [compound 365]	130 to 132	3.4
Cc1c(C(C)(C)C)s/c(=N\C(=O)c2cccc(OC(F)(F)C(F)F)c2)n1CC1CC1 [compound 198]	109 to 111	2.7
COCCn1c(C)c(C(C)(C)C)s/c1=N\C(=O)c1cccc(C(F)(F)F)c1 [compound 344]	172 to 173	12.2
Cc1c(C(C)(C)C)s/c(=N\C(=O)c2cc(Cl)ccc2Cl)n1C [compound 133]	171 to 173	7.3
Cc1c(C(C)(C)C)s/c(=N\C(=O)c2cccc(Cl)c2)n1CC1CC1 [compound 187]		17
Cc1c(C(C)C)o/c(=N\C(=O)c2cccc(C(F)(F)F)c2F)n1CC1CC1 [compound 369]		1.4
CCn1c(C)c(C(C)(C)C)s/c1=N\C(=O)c1ccc(Cl)cc1OC [compound 168]		5.4
Cc1c(C(C)(C)C)s/c(=N\C(=O)c2cccc(F)c2F)n1CC1CC1 [compound 222]		11.3
Cc1c(C(C)(C)C)s/c(=N\C(=O)c2ccc(F)cc2C(F)(F)F)n1CC1CC1 [compound 255]		0.6
Cc1c(C(C)(C)C)s/c(=N\C(=O)c2ccccc2OC(F)(F)F)n1CC1CC1 [compound 197]		2
